Results: PubChem BioAssay (NCI)
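48-hour exposure; five concentrations; linearly interpolated endpoints. GI50 is the concentration that inhibits growth by half. TGI: total growth inhibition.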

Key:
Test in all cases: DTP human tumour cell line panel, 48 h
[1] = system: OVCAR-3 ovarian
[2] = system: PC-3 prostate
[3] = system: SK-MEL-2 melanoma
[4] = system: 786-0 renal
[5] = system: UO-31 renal
[6] = system: HCT-15 colon
[7] = system: MDA-MB-468 breast
[8] = system: MOLT-4 leukemia
[9] = system: SF-539 CNS
[10] = system: OVCAR-8 ovarian
[11] = system: K-562 leukemia
[12] = system: TK-10 renal
[13] = system: CCRF-CEM leukemia
[14] = system: MDA-MB-231 breast
[15] = system: BT-549 breast
[16] = system: EKVX NSCLC
[17] = system: HT29 colon
[18] = system: U251 CNS
[19] = system: SK-MEL-5 melanoma
[20] = system: UACC-62 melanoma
[21] = system: CAKI-1 renal
[22] = system: T-47D breast
[23] = system: M14 melanoma
[24] = system: NCI/ADR-RES ovarian
[25] = system: MALME-3M melanoma
[26] = system: HOP-62 NSCLC
[27] = system: HCT-116 colon
[28] = system: HCC-2998 colon
[29] = system: SNB-75 CNS
[30] = system: SF-268 CNS
[31] = system: SK-MEL-28 melanoma
[32] = system: SK-OV-3 ovarian
[33] = system: HOP-92 NSCLC
[34] = system: A549 NSCLC
[35] = system: OVCAR-5 ovarian
[36] = system: DU-145 prostate
[37] = system: IGROV1 ovarian
[38] = system: ACHN renal
[39] = system: RPMI-8226 leukemia
[40] = system: SNB-19 CNS
[41] = system: HL-60(TB) leukemia
[42] = system: A498 renal
[43] = system: COLO 205 colon
[44] = system: SF-295 CNS
[45] = system: MCF7 breast
[46] = system: NCI-H460 lung
[47] = system: NCI-H522 lung
[48] = system: SN12C renal
[49] = system: SW-620 colon
[50] = system: RXF 393 renal
[51] = system: SR leukemia
[52] = system: LOX IMVI melanoma
[53] = system: KM12 colon
[54] = system: OVCAR-4 ovarian
[55] = system: MDA-MB-435
[56] = system: NCI-H23 lung
[57] = system: NCI-H226 lung
[58] = system: UACC-257 melanoma
[59] = system: HS 578T breast

SMILES: O=C(Nc1ccc(Cl)c([N+](=O)[O-])c1)Nc1ccc(Cl)c([N+](=O)[O-])c1
- GI50 [1]: 2.6 µM
- TGI [1]: 7.91 µM
- GI50 [2]: 2.83 µM
- TGI [2]: 10.9 µM
- GI50 [3]: 2.9 µM
- TGI [3]: 9.11 µM
- GI50 [4]: 2.91 µM
- TGI [4]: 11.9 µM
- GI50 [5]: 2.82 µM
- TGI [5]: 10.1 µM
- GI50 [6]: 2.83 µM
- TGI [6]: 10.9 µM
- GI50 [7]: 2.2 µM
- TGI [7]: 6.48 µM
- GI50 [8]: 3.12 µM
- TGI [8]: 14.6 µM
- GI50 [9]: 4.88 µM
- TGI [9]: 17.3 µM
- GI50 [10]: 4.06 µM
- TGI [10]: 14.7 µM
- GI50 [11]: 2.8 µM
- TGI [11]: 14.1 µM
- GI50 [12]: 4.31 µM
- TGI [12]: 16.6 µM
- GI50 [13]: 2.95 µM
- TGI [13]: 11.3 µM
- GI50 [14]: 3.05 µM
- TGI [14]: 8.99 µM
- GI50 [15]: 2.79 µM
- TGI [15]: 9.94 µM
- GI50 [16]: 3.56 µM
- TGI [16]: 13.1 µM
- GI50 [17]: 3.34 µM
- TGI [17]: 13.3 µM
- GI50 [18]: 3.02 µM
- TGI [18]: 12.2 µM
- GI50 [19]: 2.94 µM
- TGI [19]: 10.5 µM
- GI50 [20]: 2.74 µM
- TGI [20]: 10.6 µM
- GI50 [21]: 2.98 µM
- TGI [21]: 10.5 µM
- GI50 [22]: 2.2 µM
- TGI [22]: 9.1 µM
- GI50 [23]: 4.04 µM
- TGI [23]: 15 µM
- GI50 [24]: 3.2 µM
- TGI [24]: 11.2 µM
- GI50 [25]: 3.02 µM
- TGI [25]: 11.8 µM
- GI50 [26]: 4.63 µM
- TGI [26]: 17.2 µM
- GI50 [27]: 3.19 µM
- TGI [27]: 9.34 µM
- GI50 [28]: 3.32 µM
- TGI [28]: 11.9 µM
- GI50 [29]: 3.82 µM
- TGI [29]: 19.5 µM
- GI50 [30]: 3.87 µM
- TGI [30]: 15.8 µM
- GI50 [31]: 3.78 µM
- TGI [31]: 14.4 µM
- GI50 [32]: 4.04 µM
- TGI [32]: 15.5 µM
- GI50 [33]: 2.28 µM
- TGI [33]: 6.53 µM
- GI50 [34]: 4.29 µM
- TGI [34]: 16.9 µM
- GI50 [35]: 7.12 µM
- TGI [35]: 20.7 µM
- GI50 [36]: 3.66 µM
- TGI [36]: 13.8 µM
- GI50 [37]: 3.02 µM
- TGI [37]: 9.14 µM
- GI50 [38]: 2.69 µM
- TGI [38]: 7.44 µM
- GI50 [39]: 2.27 µM
- TGI [39]: 6.32 µM
- GI50 [40]: 2.68 µM
- TGI [40]: 10.5 µM
- GI50 [41]: 2.72 µM
- TGI [41]: 7.11 µM
- GI50 [42]: 3.33 µM
- TGI [42]: 10.8 µM
- GI50 [43]: 2.69 µM
- TGI [43]: 6.97 µM
- GI50 [44]: 2.46 µM
- TGI [44]: 7.83 µM
- GI50 [45]: 2.31 µM
- TGI [45]: 7.43 µM
- GI50 [46]: 3.22 µM
- TGI [46]: 10.6 µM
- GI50 [47]: 2.34 µM
- TGI [47]: 5.81 µM
- GI50 [48]: 2.92 µM
- TGI [48]: 9.19 µM
- GI50 [49]: 3.43 µM
- TGI [49]: 13 µM
- GI50 [50]: 11.3 µM
- TGI [50]: 24.8 µM
- GI50 [51]: 3.57 µM
- TGI [51]: 20.3 µM
- GI50 [52]: 3.13 µM
- TGI [52]: 9.64 µM
- GI50 [53]: 3.49 µM
- TGI [53]: 12.6 µM
- GI50 [54]: 2.95 µM
- TGI [54]: 11.3 µM
- GI50 [55]: 3.71 µM
- TGI [55]: 12.8 µM
- GI50 [56]: 2.36 µM
- TGI [56]: 6.35 µM
- GI50 [57]: 2.92 µM
- TGI [57]: 10.1 µM
- GI50 [58]: 4.81 µM
- TGI [58]: 17.2 µM
- GI50 [59]: 5.46 µM
- TGI [59]: 31.3 µM
